Measurements taken from patent US12172983B2, “EGFR inhibitors” (Blueprint Medicines Corporation, priority 2019, dated 2024).
Like-named read-outs stand apart in the source and are kept apart here.

Tests used:
EGFR (L858R T790M C797S) = biological target: T1, EGFR (L858R T790M C797S) (Homo sapiens, UniProt P00533, C797S/L858R/T790M); assay: Biochemical EGFR inhibition assay (Caliper mobility shift), EGFR LRTMCS mutant; details: inhibitory activity against EGFR LRTMCS mutant; apparent IC50; read-out: Ext Enz LRTMCS
T1 construct: purchased SignalChem E10-122VG
In short: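 Kinase reactions at 25 °C run to 10–20% peptide phosphorylation, stopped with 35 mM EDTA. Phosphorylated product and substrate separated electrophoretically by mobility shift. Apparent IC50 from percent activity versus log compound concentration.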

[1] = test system: phosphorylation of EGFR (Tyr1068) in NCI-H1975 cell line that harbors the EGFR L858R T790M mutations; assay: NCI-H1975 pEGFR AlphaLISA assay; format: cell-based; details: 4-5 hours incubation, read-out: Ext pEGFR H1975
In short: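 NCI-H1975 cells (EGFR L858R/T790M) seeded overnight, then treated with compound for 4-5 h at 37 °C/5% CO2. After lysis, p-EGFR (Tyr1068) quantified by AlphaLISA SureFire Ultra with acceptor then donor beads; IC50 fitted from percent inhibition versus log concentration.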

[2] = Homo sapiens, NCI-H1975, inhibition of phosphorylation of mutant EGFR in NCI-H1975 cells
[3] = inhibition of phosphorylation of mutant EGFR in NCI-H1975 cells

Row | IC50 (EGFR (L858R T790M C797S)) [nM] | IC50 [1, 2] [nM] | IC50 [1, 3] [nM] | Compound
1 | ≤ 15 | ≤ 10 |  | CC(C)c1ccc(N2CC(CS(C)(=O)=O)C2)c2cnc(Nc3ccnc(N4CC[C@H](O)[C@@H](C)C4)n3)cc12 (single isomer, unassigned) [Compound 18, (3S,4S)-1-[4-({8-[3-(methanesulfonylmethyl)azetidin-1-yl]-5-(propan-2-yl)isoquinolin-3-yl}amino)pyrimidin-2-yl]-3-methylpiperidin-4-ol or (3R,4R)-1-[4-({8-[3-(methanesulfonylmethyl)azetidin-1-yl]-5-(propan-2-yl)isoquinolin-3-yl}amino)pyrimidin-2-yl]-3-methylpiperidin-4-ol]
2 | ≤ 15 |  | 20.1 to 30 | (S)-ethyl({1-[3-({2-[(3S,4R)-3-fluoro-4-methoxypiperidin-1-yl]pyrimidin-4-yl}amino)-5-(propan-2-yl)isoquinolin-8-yl]azetidin-3-yl}methyl)imino-λ^6-sulfanone or (R)-ethyl({1-[3-({2-[(3S,4R)-3-fluoro-4-methoxypiperidin-1-yl]pyrimidin-4-yl}amino)-5-(propan-2-yl)isoquinolin-8-yl]azetidin-3-yl}methyl)imino-λ^6-sulfanone [Compound 273]
3 | 15.1 to 20 |  | ≤ 10 | CO[C@H]1CCN(c2nccc(Nc3cc4c(C(C)C)ccc(N5C[C@H](CS(C)(=O)=O)[C@H]5C)c4cn3)n2)C[C@H]1C#N (single isomer, unassigned) [Compound 164, (3S,4S)-1-[4-({8-[(2R,3S)-3-(methanesulfonylmethyl)-2-methylazetidin-1-yl]-5-(propan-2-yl)isoquinolin-3-yl}amino)pyrimidin-2-yl]-4-methoxypiperidine-3-carbonitrile or (3R,4R)-1-[4-({8-[(2R,3S)-3-(methanesulfonylmethyl)-2-methylazetidin-1-yl]-5-(propan-2-yl)isoquinolin-3-yl}amino)pyrimidin-2-yl]-4-methoxypiperidine-3-carbonitrile]
4 | ≤ 15 | 10.1 to 20 |  | C[C@H](CO)c1ccc(N2C[C@H](CS(C)(=O)=O)[C@H]2C)c2cnc(Nc3ccnc(N4CC[C@@](C)(O)[C@@H](F)C4)n3)cc12 (single isomer, unassigned) [Compound 199, (3S,4R)-3-fluoro-1-(4-(5-((S)-1-hydroxypropan-2-yl)-8-((2R,3S)-2-methyl-3-(methylsulfonylmethyl)azetidin-1-yl)isoquinolin-3-ylamino)pyrimidin-2-yl)-4-methylpiperidin-4-ol or (3S,4R)-3-fluoro-1-(4-((5-((R)-1-hydroxypropan-2-yl)-8-((2R,3S)-2-methyl-3-((methylsulfonyl)methyl)azetidin-1-yl)isoquinolin-3-yl)amino)pyrimidin-2-yl)-4-methylpiperidin-4-ol]
5 | 20.1 to 30 | ≤ 10 |  | CO[C@@H]1[C@H](F)CN(c2nccc(Nc3cc4c(C(C)C)ccc(N5CC(CS(C)(=O)=O)C5)c4cn3)n2)C[C@@H]1OC (stereo in doubt) [Compound 201]
6 | ≤ 15 | 10.1 to 20 |  | CC(C)c1ncc(N2C[C@H](CS(C)(=O)=O)[C@H]2C)c2cnc(Nc3ccnc(N4CC[C@](C)(O)[C@H](F)C4)n3)cc12 (single isomer, unassigned) [Compound 136]
7 | ≤ 15 | 30.1 to 50 |  | C[C@@H]1[C@@H](CS(C)(=O)=O)CN1c1cccc2cc(Nc3ccnc(N4C[C@@H](F)[C@@H](O)[C@](C)(F)C4)n3)ncc12 (single isomer, unassigned) [Compound 35, (3R,4R,5R)-3,5-difluoro-1-[4-({8-[(2R,3S)-3-(methanesulfonylmethyl)-2-methylazetidin-1-yl]isoquinolin-3-yl}amino)pyrimidin-2-yl]-3-methylpiperidin-4-ol or (3S,4S,5S)-3,5-difluoro-1-[4-({8-[(2R,3S)-3-(methanesulfonylmethyl)-2-methylazetidin-1-yl]isoquinolin-3-yl}amino)pyrimidin-2-yl]-3-methylpiperidin-4-ol]
8 | ≤ 15 | ≤ 10 |  | CC(C)c1ccc(N2C[C@H](CS(C)(=O)=O)[C@H]2C)c2cnc(Nc3ccnc(N4CC[C@H](OCCO)[C@H](F)C4)n3)cc12 [Compound 228, 2-((3R,4S)-3-fluoro-1-(4-(5-isopropyl-8-((2R,3S)-2-methyl-3-(methylsulfonylmethyl)azetidin-1-yl)isoquinolin-3-ylamino)pyrimidin-2-yl)piperidin-4-yloxy)ethanol]
9 | ≤ 15 | ≤ 10 |  | CO[C@H]1CCN(c2nccc(Nc3cc4c(C(C)C)cnc(N5C[C@H](CS(C)(=O)=O)[C@H]5C)c4cn3)n2)C[C@H]1F [Compound 131, N-{2-[(3R,4S)-3-fluoro-4-methoxypiperidin-1-yl]pyrimidin-4-yl}-8-[(2R,3S)-3-(methanesulfonylmethyl)-2-methylazetidin-1-yl]-5-(propan-2-yl)-2,7-naphthyridin-3-amine]
10 | ≤ 15 | ≤ 10 |  | CNCCO[C@@H]1CCN(c2nccc(Nc3cc4c(C(C)C)ccc(N5C[C@H](CS(C)(=O)=O)[C@H]5C)c4cn3)n2)CC1(F)F (single isomer, unassigned) [Compound 300, N-{2-[(4R)-3,3-difluoro-4-[2-(methylamino)ethoxy]piperidin-1-yl]pyrimidin-4-yl}-8-[(2R,3S)-3-(methanesulfonylmethyl)-2-methylazetidin-1-yl]-5-(propan-2-yl)isoquinolin-3-amine or N-{2-[(4S)-3,3-difluoro-4-[2-(methylamino)ethoxy]piperidin-1-yl]pyrimidin-4-yl}-8-[(2R,3S)-3-(methanesulfonylmethyl)-2-methylazetidin-1-yl]-5-(propan-2-yl)isoquinolin-3-amine]
11 | ≤ 15 |  | ≤ 10 | CO[C@H]1CCN(c2nccc(Nc3cc4c(C(C)C)cnc(N5CC(C[S@@](C)(=N)=O)[C@H]5C)c4cn3)n2)C[C@H]1F (single isomer, unassigned) [Compound 108, (1S)-(((2R)-1-(6-((2-((3R,4S)-3-fluoro-4-methoxypiperidin-1-yl)pyrimidin-4-yl)amino)-4-isopropyl-2,7-naphthyridin-1-yl)-2-methylazetidin-3-yl)methyl)(imino)(methyl)-λ^6-sulfanone or (1R)-(((2R)-1-(6-((2-((3R,4S)-3-fluoro-4-methoxypiperidin-1-yl)pyrimidin-4-yl)amino)-4-isopropyl-2,7-naphthyridin-1-yl)-2-methylazetidin-3-yl)methyl)(imino)(methyl)-λ^6-sulfanone]
12 | ≤ 15 | 10.1 to 20 |  | CC(C)c1ccc(N2CC(CS(C)(=O)=O)C2)c2cnc(Nc3ccnc(N4CC[C@](C)(O)C(F)(F)C4)n3)cc12 (single isomer, unassigned) [Compound 153, (4S)-3,3-difluoro-1-[4-({8-[3-(methanesulfonylmethyl)azetidin-1-yl]-5-(propan-2-yl)isoquinolin-3-yl}amino)pyrimidin-2-yl]-4-methylpiperidin-4-ol or (4R)-3,3-difluoro-1-[4-({8-[3-(methanesulfonylmethyl)azetidin-1-yl]-5-(propan-2-yl)isoquinolin-3-yl}amino)pyrimidin-2-yl]-4-methylpiperidin-4-ol]
13 | ≤ 15 | ≤ 10 |  | CC(C)c1ncc(N2C[C@H](CS(C)(=O)=O)[C@H]2C)c2cnc(Nc3ccnc(N4CC[C@@](C)(O)C(F)(F)C4)n3)cc12 (single isomer, unassigned) [Compound 214, (4R)-3,3-difluoro-1-[4-({8-[(2R,3S)-3-(methanesulfonylmethyl)-2-methylazetidin-1-yl]-5-(propan-2-yl)-2,6-naphthyridin-3-yl}amino)pyrimidin-2-yl]-4-methylpiperidin-4-ol or (4S)-3,3-difluoro-1-[4-({8-[(2R,3S)-3-(methanesulfonylmethyl)-2-methylazetidin-1-yl]-5-(propan-2-yl)-2,6-naphthyridin-3-yl}amino)pyrimidin-2-yl]-4-methylpiperidin-4-ol]
14 | ≤ 15 |  | 30.1 to 50 | CC(C)c1cnc(N2CC(CS(C)(=O)=O)C2)c2cnc(Nc3ccnc(N4C[C@H](F)[C@@H](F)C4)n3)cc12 (single isomer, unassigned) [Compound 8, N-{2-[(3S,4S)-3,4-difluoropyrrolidin-1-yl]pyrimidin-4-yl}-8-[3-(methanesulfonylmethyl)azetidin-1-yl]-5-(propan-2-yl)-2,7-naphthyridin-3-amine or N-{2-[(3R,4R)-3,4-difluoropyrrolidin-1-yl]pyrimidin-4-yl}-8-[3-(methanesulfonylmethyl)azetidin-1-yl]-5-(propan-2-yl)-2,7-naphthyridin-3-amine]
15 | ≤ 15 | 10.1 to 20 |  | CC1(C)CN(c2nccc(Nc3cc4cccc(N5CC(CS(C)(=O)=O)C5)c4cn3)n2)CC(F)(F)[C@@H]1O (single isomer, unassigned) [Compound 34, (4R)-3,3-difluoro-1-[4-({8-[3-(methanesulfonylmethyl)azetidin-1-yl]isoquinolin-3-yl}amino)pyrimidin-2-yl]-5,5-dimethylpiperidin-4-ol or (4S)-3,3-difluoro-1-[4-({8-[3-(methanesulfonylmethyl)azetidin-1-yl]isoquinolin-3-yl}amino)pyrimidin-2-yl]-5,5-dimethylpiperidin-4-ol]
